How the values were obtained:
Format in all cases: biochemical
Details in all cases: 100 micromolar inhibitor concentration; 100 is no change
[1] = molecular target: ERK1 (Homo sapiens, UniProt P27361); experiment: Kinase profiling ERK1
Source text: (§1) Any value less that 25 is considered to be highly significant inhibition.

[2] = molecular target: ERK2 (Homo sapiens, UniProt P28482); experiment: Kinase profiling ERK2
Source text: as §1

[3] = molecular target: JNK2 (Homo sapiens, UniProt P45984); experiment: Kinase profiling JNK2
Sequence of JNK2 (P45984 whole entry, species assumed): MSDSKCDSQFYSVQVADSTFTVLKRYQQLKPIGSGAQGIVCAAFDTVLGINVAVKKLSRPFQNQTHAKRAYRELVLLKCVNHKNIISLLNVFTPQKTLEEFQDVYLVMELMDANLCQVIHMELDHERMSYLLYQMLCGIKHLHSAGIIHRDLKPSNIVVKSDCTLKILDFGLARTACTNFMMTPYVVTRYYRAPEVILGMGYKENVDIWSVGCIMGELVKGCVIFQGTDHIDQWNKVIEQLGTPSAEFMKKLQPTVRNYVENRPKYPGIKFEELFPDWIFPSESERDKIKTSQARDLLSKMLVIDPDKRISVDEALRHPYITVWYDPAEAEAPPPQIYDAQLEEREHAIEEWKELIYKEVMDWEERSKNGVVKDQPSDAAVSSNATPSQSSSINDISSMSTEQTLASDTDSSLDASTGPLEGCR
Source text: as §1

[4] = molecular target: T1, p38g MAPK (Homo sapiens, UniProt P53778); experiment: Kinase profiling p38g MAPK
T1 sequence (P53778 1-367): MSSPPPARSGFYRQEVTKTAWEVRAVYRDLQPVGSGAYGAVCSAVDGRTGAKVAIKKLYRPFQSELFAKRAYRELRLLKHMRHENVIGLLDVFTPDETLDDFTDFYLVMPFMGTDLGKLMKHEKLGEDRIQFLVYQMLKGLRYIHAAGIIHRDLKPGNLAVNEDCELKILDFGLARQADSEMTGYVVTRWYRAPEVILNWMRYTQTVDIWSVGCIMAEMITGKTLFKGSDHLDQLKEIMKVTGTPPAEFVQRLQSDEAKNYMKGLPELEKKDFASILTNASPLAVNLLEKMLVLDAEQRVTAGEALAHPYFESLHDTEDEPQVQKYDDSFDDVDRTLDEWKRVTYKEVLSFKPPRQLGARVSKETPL
Source text: as §1

[5] = molecular target: T2, p38d MAPK (Homo sapiens, UniProt O15264); experiment: Kinase profiling p38d MAPK
T2 sequence (O15264 1-365): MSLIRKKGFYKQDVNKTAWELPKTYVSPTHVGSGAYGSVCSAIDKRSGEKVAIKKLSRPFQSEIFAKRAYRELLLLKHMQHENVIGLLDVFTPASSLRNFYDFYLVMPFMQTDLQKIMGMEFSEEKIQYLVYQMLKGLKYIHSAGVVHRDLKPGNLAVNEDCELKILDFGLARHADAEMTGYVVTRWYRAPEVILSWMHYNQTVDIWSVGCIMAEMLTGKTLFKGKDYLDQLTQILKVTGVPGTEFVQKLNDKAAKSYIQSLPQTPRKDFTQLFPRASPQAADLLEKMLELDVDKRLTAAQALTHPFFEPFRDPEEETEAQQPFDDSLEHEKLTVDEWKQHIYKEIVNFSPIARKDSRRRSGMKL
Source text: as §1

[6] = molecular target: RSK1 (Homo sapiens, UniProt Q15418); experiment: Kinase profiling RSK1
Sequence of RSK1 (Q15418 whole entry, species assumed): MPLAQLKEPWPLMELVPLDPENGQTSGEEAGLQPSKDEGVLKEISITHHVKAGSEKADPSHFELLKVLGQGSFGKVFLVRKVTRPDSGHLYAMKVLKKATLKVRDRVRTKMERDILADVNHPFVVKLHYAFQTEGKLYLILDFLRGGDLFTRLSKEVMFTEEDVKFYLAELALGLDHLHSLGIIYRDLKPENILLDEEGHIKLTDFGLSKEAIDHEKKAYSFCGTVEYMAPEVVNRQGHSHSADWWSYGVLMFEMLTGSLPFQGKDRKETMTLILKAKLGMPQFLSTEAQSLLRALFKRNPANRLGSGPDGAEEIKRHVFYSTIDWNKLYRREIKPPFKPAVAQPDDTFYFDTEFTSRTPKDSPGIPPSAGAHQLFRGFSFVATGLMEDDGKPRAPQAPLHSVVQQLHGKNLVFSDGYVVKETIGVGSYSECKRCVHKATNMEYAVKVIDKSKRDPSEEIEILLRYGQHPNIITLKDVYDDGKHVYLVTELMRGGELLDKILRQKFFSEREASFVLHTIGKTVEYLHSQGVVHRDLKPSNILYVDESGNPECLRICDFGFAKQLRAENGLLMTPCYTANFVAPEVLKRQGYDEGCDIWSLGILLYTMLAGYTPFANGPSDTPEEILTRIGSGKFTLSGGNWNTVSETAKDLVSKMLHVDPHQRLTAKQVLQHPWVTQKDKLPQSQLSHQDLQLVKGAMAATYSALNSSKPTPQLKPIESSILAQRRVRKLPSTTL
Source text: as §1

[7] = molecular target: PKBb (Homo sapiens, UniProt P31751); experiment: Kinase profiling PKBb
Sequence of PKBb (P31751 whole entry): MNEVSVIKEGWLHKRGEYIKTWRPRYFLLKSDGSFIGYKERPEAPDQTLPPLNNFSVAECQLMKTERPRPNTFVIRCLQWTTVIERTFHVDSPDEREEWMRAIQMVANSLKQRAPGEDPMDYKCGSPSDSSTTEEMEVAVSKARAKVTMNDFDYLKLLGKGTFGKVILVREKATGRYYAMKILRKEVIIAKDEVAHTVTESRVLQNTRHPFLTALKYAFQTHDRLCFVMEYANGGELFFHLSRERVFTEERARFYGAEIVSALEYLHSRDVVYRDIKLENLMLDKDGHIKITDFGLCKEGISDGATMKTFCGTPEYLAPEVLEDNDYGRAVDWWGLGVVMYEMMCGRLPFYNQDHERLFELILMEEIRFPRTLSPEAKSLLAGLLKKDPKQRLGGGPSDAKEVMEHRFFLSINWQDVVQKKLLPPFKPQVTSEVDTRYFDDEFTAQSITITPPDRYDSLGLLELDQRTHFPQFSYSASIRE
Source text: as §1

[8] = molecular target: PKA (Homo sapiens, UniProt P17612); experiment: Kinase profiling PKA
Source text: as §1

[9] = molecular target: PKCa (Homo sapiens, UniProt P17252); experiment: Kinase profiling PKCa
Source text: as §1

[10] = molecular target: MSK1 (Homo sapiens, UniProt O75582); experiment: Kinase profiling MSK1
Sequence of MSK1 (O75582 whole entry, species assumed): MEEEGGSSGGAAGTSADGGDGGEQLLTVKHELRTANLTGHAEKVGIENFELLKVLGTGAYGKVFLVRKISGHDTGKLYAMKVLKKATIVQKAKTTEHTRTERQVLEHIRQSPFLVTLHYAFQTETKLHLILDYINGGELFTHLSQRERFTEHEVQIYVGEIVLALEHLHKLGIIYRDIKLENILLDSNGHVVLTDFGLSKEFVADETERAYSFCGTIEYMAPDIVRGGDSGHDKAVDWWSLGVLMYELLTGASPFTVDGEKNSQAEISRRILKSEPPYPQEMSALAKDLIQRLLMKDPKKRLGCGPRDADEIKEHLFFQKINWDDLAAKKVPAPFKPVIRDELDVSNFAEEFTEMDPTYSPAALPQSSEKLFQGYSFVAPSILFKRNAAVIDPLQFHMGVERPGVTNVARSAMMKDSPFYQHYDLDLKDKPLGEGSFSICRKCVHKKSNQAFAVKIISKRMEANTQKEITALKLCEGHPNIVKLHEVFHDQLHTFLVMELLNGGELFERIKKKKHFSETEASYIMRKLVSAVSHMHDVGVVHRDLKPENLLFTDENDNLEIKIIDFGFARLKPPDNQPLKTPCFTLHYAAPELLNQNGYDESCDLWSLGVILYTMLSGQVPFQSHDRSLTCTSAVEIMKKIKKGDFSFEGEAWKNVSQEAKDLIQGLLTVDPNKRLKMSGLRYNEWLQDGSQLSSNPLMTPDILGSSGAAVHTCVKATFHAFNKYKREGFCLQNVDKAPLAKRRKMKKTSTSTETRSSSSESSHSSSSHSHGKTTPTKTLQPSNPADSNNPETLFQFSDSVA
Source text: as §1

[11] = molecular target: SmMLCK (Homo sapiens, UniProt Q15746); experiment: Kinase profiling SmMLCK
[12] = test system: CK2; experiment: Kinase profiling CK2
Source text: as §1

[13] = molecular target: DYRK1A (Homo sapiens, UniProt Q13627); experiment: DYRK 1A assay (kinase profiling)
Experimental: Assays are stopped by addition of 5 μl of 0.5 M (3%) orthophosphoric acid and then harvested onto P81 Unifilter plates with a wash buffer of 50 mM orthophosphoric acid.
as §1

[14] = molecular target: NEK6 (Homo sapiens, UniProt Q9HC98); experiment: Kinase profiling NEK6
Source text: as §1

[15] = molecular target: T3, TTK (Homo sapiens, UniProt P33981); experiment: Kinase profiling TTK
T3 sequence (P33981 1-857): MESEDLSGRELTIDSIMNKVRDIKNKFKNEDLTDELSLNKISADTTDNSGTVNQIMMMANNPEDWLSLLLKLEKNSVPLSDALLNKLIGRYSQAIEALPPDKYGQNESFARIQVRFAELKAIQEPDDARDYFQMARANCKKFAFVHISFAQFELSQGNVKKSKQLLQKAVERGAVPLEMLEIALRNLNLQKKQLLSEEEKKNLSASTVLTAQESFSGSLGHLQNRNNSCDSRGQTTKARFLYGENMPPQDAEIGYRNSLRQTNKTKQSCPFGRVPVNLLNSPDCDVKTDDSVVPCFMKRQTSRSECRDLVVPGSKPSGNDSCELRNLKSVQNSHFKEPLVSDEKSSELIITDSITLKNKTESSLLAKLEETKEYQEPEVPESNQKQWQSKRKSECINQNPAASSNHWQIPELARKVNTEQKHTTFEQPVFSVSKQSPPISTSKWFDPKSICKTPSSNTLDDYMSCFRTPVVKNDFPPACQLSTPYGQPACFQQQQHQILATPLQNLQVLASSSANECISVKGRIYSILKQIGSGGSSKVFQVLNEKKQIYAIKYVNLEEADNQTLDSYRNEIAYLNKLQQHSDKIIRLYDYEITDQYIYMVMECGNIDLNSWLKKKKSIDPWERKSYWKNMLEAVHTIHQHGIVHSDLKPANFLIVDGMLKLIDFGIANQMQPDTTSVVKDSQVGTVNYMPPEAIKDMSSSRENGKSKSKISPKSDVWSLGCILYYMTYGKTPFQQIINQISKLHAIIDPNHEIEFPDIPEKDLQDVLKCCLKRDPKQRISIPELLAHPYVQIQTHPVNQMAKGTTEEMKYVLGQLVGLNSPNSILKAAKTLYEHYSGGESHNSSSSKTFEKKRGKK
Source text: as §1

[16] = molecular target: Lck (Homo sapiens, UniProt P06239); experiment: Kinase profiling Lck
Source text: as §1

[17] = molecular target: JAK2 (Homo sapiens, UniProt O60674); experiment: Kinase profiling JAK2
Source text: as §1

[18] = molecular target: SYK (Homo sapiens, UniProt P43405); experiment: Kinase profiling SYK
Source text: as §1

[19] = molecular target: EPH-A2 (Homo sapiens, UniProt P29317); experiment: Kinase profiling EPH-A2
Source text: as §1

[20] = molecular target: HER4 (Homo sapiens, UniProt Q15303); experiment: Kinase profiling HER4
Sequence of HER4 (Q15303 26-1308, species assumed): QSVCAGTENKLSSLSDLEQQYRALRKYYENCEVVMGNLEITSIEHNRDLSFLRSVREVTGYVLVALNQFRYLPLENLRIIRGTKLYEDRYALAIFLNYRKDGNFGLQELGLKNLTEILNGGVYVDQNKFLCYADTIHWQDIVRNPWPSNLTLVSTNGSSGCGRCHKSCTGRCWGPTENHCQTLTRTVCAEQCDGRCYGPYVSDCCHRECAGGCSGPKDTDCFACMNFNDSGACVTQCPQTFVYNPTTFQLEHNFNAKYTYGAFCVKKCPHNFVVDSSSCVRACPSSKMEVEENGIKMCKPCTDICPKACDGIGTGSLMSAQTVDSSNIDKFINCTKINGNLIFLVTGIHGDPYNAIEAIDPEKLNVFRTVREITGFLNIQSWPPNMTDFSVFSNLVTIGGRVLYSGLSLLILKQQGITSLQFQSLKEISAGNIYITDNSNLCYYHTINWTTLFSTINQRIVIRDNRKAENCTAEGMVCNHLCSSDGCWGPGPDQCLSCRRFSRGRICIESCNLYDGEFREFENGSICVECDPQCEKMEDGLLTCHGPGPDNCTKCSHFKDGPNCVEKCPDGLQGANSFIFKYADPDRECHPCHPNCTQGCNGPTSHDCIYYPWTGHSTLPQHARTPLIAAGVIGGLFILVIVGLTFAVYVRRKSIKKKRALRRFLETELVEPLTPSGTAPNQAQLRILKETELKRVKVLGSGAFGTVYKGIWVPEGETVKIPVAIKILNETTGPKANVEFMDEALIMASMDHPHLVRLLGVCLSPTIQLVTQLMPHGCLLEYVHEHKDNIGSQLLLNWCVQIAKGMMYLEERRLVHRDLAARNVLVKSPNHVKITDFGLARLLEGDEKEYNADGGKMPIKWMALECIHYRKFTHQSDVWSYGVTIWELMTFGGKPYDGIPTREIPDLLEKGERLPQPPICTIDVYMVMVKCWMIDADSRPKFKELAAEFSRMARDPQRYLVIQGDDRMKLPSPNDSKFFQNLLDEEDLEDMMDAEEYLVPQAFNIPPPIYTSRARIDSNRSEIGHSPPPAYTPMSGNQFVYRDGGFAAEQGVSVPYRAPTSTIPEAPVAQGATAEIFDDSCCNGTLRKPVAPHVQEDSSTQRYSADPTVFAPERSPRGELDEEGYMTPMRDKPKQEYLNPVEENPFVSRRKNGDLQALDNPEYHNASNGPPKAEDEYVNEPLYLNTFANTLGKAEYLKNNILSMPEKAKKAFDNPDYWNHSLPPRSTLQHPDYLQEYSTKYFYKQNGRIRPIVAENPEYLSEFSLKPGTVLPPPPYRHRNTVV
Source text: as §1

[21] = molecular target: IGF-1R (Homo sapiens, UniProt P08069); experiment: Kinase profiling IGF-1R
Source text: as §1

Sequence of ERK2 (P28482 whole entry, species assumed): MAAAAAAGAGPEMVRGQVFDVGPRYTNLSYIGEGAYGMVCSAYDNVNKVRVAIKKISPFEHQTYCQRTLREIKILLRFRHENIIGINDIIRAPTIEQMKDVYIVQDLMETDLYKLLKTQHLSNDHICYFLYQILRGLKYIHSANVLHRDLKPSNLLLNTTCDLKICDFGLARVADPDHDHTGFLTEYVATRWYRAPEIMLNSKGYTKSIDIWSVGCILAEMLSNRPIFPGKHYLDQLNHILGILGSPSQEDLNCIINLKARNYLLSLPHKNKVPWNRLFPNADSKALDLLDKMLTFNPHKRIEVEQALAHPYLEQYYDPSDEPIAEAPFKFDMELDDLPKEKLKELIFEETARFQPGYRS

How did the “residual kinase activity, ERK1” value [1] turn out when `O=C(Nc1nc2ccc(O)cc2s1)c1cccnc1` [Compound 08-44] was run?
The value was 81.

What about the “residual kinase activity, ERK2” value [2] of the same compound?
The value was 75.

And the “residual kinase activity, JNK2” value [3]?
Its value is 90.

What about the “residual kinase activity, p38g MAPK” value [4] of the same compound?
Its value is 77.

And the “residual kinase activity, p38d MAPK” value [5]?
The value was 62.

And the “residual kinase activity, RSK1” value [6]?
Its value is 41.

And the “residual kinase activity, PKBb” value [7]?
Its value is 45.

What about the “residual kinase activity, PKA” value [8] of the same compound?
The value was 92.

And the “residual kinase activity, PKCa” value [9]?
Its value is 67.

And the “residual kinase activity, MSK1” value [10]?
Its value is 49.

And the “residual kinase activity, SmMLCK” value [11]?
Its value is 19.

And the “residual kinase activity, CK2” value [12]?
The value was 19.

What about the “residual kinase activity, DYRK1A” value [13] of the same compound?
The value was 8.

What about the “residual kinase activity, NEK6” value [14] of the same compound?
The value was 84.

And the “residual kinase activity, TTK” value [15]?
The value was 22.

What about the “residual kinase activity, Lck” value [16] of the same compound?
The value was 82.

And the “residual kinase activity, JAK2” value [17]?
The value was 30.

And the “residual kinase activity, SYK” value [18]?
Its value is 71.

And the “residual kinase activity, EPH-A2” value [19]?
The value was 81.

And the “residual kinase activity, HER4” value [20]?
The value was 17.

And the “residual kinase activity, IGF-1R” value [21]?
The value was 54.
